Experimental data published in ChEMBL document CHEMBL1122733, “Synthesis and beta-adrenergic blocking activity of new aliphatic and alicyclic oxime ethers” (J Med Chem, 1984).

Assay: Compound was evaluated for pKa value by potentiometric titration
Type: physicochemical

Row | pKa | Compound
1 | 9.57 | C/C(CC1CC1)=N/OCC(O)CNC(C)(C)C (stereo unspecified)
2 | 9.67 | C=CC(C)(C)OCC(O)CNC(C)(C)C (stereo unspecified)
3 | 9.64 | CC(C)(C)NCC(O)CON=C(C1CC1)C1CC1 (stereo unspecified)
4 | 9.73 | CC(C)COCC(O)CNC(C)(C)C (stereo unspecified)
5 | 9.27 | C/C(=N/OCC(O)CNC(C)(C)C)C(C)C (stereo unspecified)
6 | 9.76 | CC(OCC(O)CNC(C)(C)C)C1CC1 (stereo unspecified)
7 | 9.94 | CC1CC(OCC(O)CNC(C)(C)C)CC(C)(C)C1 (stereo unspecified)
8 | 9.9 | CC(C)OCC(O)CNC(C)(C)C (stereo unspecified)
9 | 9.73 | CC(C)(C)NCC(O)COCC1CC1 (stereo unspecified)
10 | 9.45 | C/C(=N/OCC(O)CNC(C)(C)C)C1CC1 (stereo unspecified)
11 | 9.42 | CC(C)=NOCC(O)CNC(C)(C)C (stereo unspecified)
12 | 9.68 | CC(C)(C)COCC(O)CNC(C)(C)C (stereo unspecified)
13 | 9.1 | CC(NOCC(O)CNC(C)(C)C)C1CC1 (stereo unspecified)
14 | 9.64 | CC(C)(C)NCC(O)CO/N=C\C1CC1 (stereo unspecified)
15 | 9.63 | CC(C)(C)NCC(O)COC(C1CC1)C1CC1 (stereo unspecified)
16 | 9.41 | CC1C/C(=N/OCC(O)CNC(C)(C)C)CC(C)(C)C1 (stereo unspecified)
